In patent US10160762B2, “6-alkyl dihydropyrazolopyrimidinone compounds as PDE2 inhibitors” (Merck Sharp & Dohme Corp., priority 2015, dated 2018):

Molecular target: T1, human PDE2A1 (Homo sapiens, UniProt O00408)
T1 construct: GST; purchased BPS Bioscience (San Diego, Calif.) 60020; host or cells: insect cells
Experiment: IMAP FP PDE assay, human PDE2A1
Format: biochemical
Settings: Lab B; read-out: Human PDE2 Ki (nM) Lab B
Method in brief: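 FP (IMAP) read after 60 min room-temperature reaction of insect-cell GST-human PDE2A1 with 50 nM FAM-cAMP plus 1000 nM cGMP (pH 7.2 Tris, Mg2+, DTT). Compounds titrated 3-fold over ten points. Apparent Ki derived assuming KM of 10,000 nM; enzyme at 20% substrate turnover.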

T1 sequence (O00408 1-920 isoform O00408-2): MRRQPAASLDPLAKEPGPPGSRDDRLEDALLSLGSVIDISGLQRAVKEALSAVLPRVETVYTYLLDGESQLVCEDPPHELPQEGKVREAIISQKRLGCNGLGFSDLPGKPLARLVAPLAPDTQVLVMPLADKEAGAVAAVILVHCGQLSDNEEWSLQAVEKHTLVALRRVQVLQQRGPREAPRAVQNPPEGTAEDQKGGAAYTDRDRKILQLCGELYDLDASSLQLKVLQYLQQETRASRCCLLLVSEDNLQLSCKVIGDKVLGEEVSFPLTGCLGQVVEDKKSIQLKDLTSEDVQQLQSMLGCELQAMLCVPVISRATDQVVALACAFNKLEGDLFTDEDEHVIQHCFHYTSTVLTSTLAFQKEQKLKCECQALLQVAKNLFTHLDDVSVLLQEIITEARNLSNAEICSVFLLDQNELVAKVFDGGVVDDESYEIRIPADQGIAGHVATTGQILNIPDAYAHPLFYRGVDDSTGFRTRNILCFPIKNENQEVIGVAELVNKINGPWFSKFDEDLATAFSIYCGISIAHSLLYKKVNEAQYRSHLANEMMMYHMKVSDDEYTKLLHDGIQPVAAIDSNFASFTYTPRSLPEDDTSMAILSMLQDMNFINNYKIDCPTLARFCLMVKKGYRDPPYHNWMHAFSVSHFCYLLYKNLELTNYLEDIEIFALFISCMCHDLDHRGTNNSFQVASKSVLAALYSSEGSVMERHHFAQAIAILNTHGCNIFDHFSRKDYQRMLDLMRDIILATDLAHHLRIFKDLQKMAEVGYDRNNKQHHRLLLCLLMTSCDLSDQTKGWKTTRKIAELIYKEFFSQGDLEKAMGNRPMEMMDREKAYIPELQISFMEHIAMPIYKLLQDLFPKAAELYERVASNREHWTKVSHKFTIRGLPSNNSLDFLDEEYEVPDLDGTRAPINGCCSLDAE

**Q.** `Cc1nc2c(c(CF)nn2C(c2ccc(C(F)(F)F)c(F)c2)C2CC2)c(=O)[nH]1` (single isomer, unassigned) [Example 227, (S)- or (R)-1-(Cyclopropyl(3-fluoro-4-(trifluoromethyl)phenyl)methyl)-3-(fluoromethyl)-6-methyl-1,5-dihydro-4H-pyrazolo[3,4-d]pyrimidin-4-one] was tested. Which Ki did it give?
**A.** The Ki was 32 nM.

**Q.** With `Cc1nc2c(c(CF)nn2C(c2ccc(OC(F)(F)F)c(F)c2)C2CC2)c(=O)[nH]1` (single isomer, unassigned) [Example 229, (S)- or (R)-1-(Cyclopropyl(3-fluoro-4-(trifluoromethoxy)phenyl)methyl)-3-(fluoromethyl)-6-methyl-1,5-dihydro-4H-pyrazolo[3,4-d]pyrimidin-4-one] as the molecule, how does the Ki read?
**A.** The Ki was 2 nM.

**Q.** Which Ki does the source give for `Cc1nc2c(c(-c3ccn[nH]3)nn2C(C)c2ccc(C(F)(F)F)cc2)c(=O)[nH]1` (single isomer, unassigned) [Example 235] here?
**A.** Its Ki is 25 nM.

**Q.** With `Cc1nc2c(c(-c3ccn[nH]3)nn2C(C)c2ccc(C(F)(F)F)cc2)c(=O)[nH]1` (single isomer, unassigned) [Example 236] as the molecule, how does the Ki read?
**A.** Its Ki is 76 nM.

**Q.** With `Cc1nc2c(c(-c3cn[nH]c3)nn2C(C)c2ccc(C(F)(F)F)cc2)c(=O)[nH]1` (single isomer, unassigned) [Example 237] as the molecule, how does the Ki read?
**A.** The Ki was 2.5 nM.

**Q.** For `Cc1nc2c(c(-c3cn[nH]c3)nn2C(C)c2ccc(C(F)(F)F)cc2)c(=O)[nH]1` (single isomer, unassigned) [Example 238], which Ki is on record?
**A.** Its Ki is 48 nM.

**Q.** With `Cc1nc2c(c(CC(O)C(F)(F)F)nn2C(C)c2ccc(C(F)(F)F)cc2)c(=O)[nH]1` (single isomer, unassigned) [Example 239] as the molecule, how does the Ki read?
**A.** Its Ki is roughly 2820 nM.

**Q.** With `Cc1nc2c(c(CC(O)C(F)(F)F)nn2C(C)c2ccc(C(F)(F)F)cc2)c(=O)[nH]1` (single isomer, unassigned) [Example 240] as the molecule, how does the Ki read?
**A.** Its Ki is 434 nM.

**Q.** With `Cc1nc2c(c(CC(O)C(F)(F)F)nn2C(C)c2ccc(C(F)(F)F)cc2)c(=O)[nH]1` (single isomer, unassigned) [Example 241] as the molecule, how does the Ki read?
**A.** The Ki was 610 nM.

**Q.** `Cc1nc2c(c(CC(O)C(F)(F)F)nn2C(C)c2ccc(C(F)(F)F)cc2)c(=O)[nH]1` (single isomer, unassigned) [Example 242] was tested. Which Ki did it give?
**A.** Its Ki is 434 nM.

**Q.** `Cc1nc2c(c(CC(C)O)nn2C(C)c2ccc(C(F)(F)F)cc2)c(=O)[nH]1` (single isomer, unassigned) [Example 243] was tested. Which Ki did it give?
**A.** Its Ki is 808 nM.

**Q.** Which Ki does the source give for `Cc1nc2c(c(CC(C)O)nn2C(C)c2ccc(C(F)(F)F)cc2)c(=O)[nH]1` (single isomer, unassigned) [Example 244] here?
**A.** Its Ki is 386 nM.

**Q.** Which Ki does the source give for `Cc1nc2c(c(CC(C)O)nn2C(C)c2ccc(C(F)(F)F)cc2)c(=O)[nH]1` (single isomer, unassigned) [Example 245] here?
**A.** The Ki was 72 nM.

**Q.** `Cc1nc2c(c(CC(C)O)nn2C(C)c2ccc(C(F)(F)F)cc2)c(=O)[nH]1` (single isomer, unassigned) [Example 246] was tested. Which Ki did it give?
**A.** Its Ki is 72 nM.

**Q.** With `Cc1nc2c(c(C(F)(F)CO)nn2C(C)c2ccc(C(F)(F)F)cc2)c(=O)[nH]1` (single isomer, unassigned) [Example 254] as the molecule, how does the Ki read?
**A.** The Ki was 452 nM.

**Q.** `Cc1nc2c(c(C(N)=O)nn2C(C)c2ccc(C(F)(F)F)cc2)c(=O)[nH]1` (single isomer, unassigned) [Example 256] was tested. Which Ki did it give?
**A.** The Ki was 86 nM.

**Q.** Which Ki does the source give for `Cc1nc2c(c(C(N)=O)nn2C(C)c2ccc(C(F)(F)F)cc2)c(=O)[nH]1` (single isomer, unassigned) [Example 257] here?
**A.** Its Ki is 115 nM.

**Q.** Which Ki does the source give for `CC(=O)Nc1nn(C(C)c2ccc(C(F)(F)F)cc2)c2nc(C)[nH]c(=O)c12` (single isomer, unassigned) [Example 259] here?
**A.** Its Ki is roughly 2120 nM.

**Q.** With `CC(=O)Nc1nn(C(C)c2ccc(C(F)(F)F)cc2)c2nc(C)[nH]c(=O)c12` (single isomer, unassigned) [Example 260] as the molecule, how does the Ki read?
**A.** The Ki was 54 nM.

**Q.** `Cc1nc2c(c(-c3nnco3)nn2C(C)c2ccc(C(F)(F)F)cc2)c(=O)[nH]1` (single isomer, unassigned) [Example 262] was tested. Which Ki did it give?
**A.** Its Ki is 395 nM.

**Q.** With `Cc1nc2c(c(-c3nnco3)nn2C(C)c2ccc(C(F)(F)F)cc2)c(=O)[nH]1` (single isomer, unassigned) [Example 263] as the molecule, how does the Ki read?
**A.** Its Ki is 0.88 nM.

**Q.** Which Ki does the source give for `CNC(=O)c1nn(C(C)c2ccc(C(F)(F)F)cc2)c2nc(C)[nH]c(=O)c12` (single isomer, unassigned) [Example 264] here?
**A.** The Ki was 233 nM.

**Q.** With `CNC(=O)c1nn(C(C)c2ccc(C(F)(F)F)cc2)c2nc(C)[nH]c(=O)c12` (single isomer, unassigned) [Example 265] as the molecule, how does the Ki read?
**A.** The Ki was 375 nM.

**Q.** How did the Ki turn out when `Cc1nc2c(c(C(=O)N(C)C)nn2C(C)c2ccc(C(F)(F)F)cc2)c(=O)[nH]1` (single isomer, unassigned) [Example 266, (R)- or (S)-N,N,6-Trimethyl-4-oxo-1-(1-(4-(trifluoromethyl)phenyl)ethyl)-4,5-dihydro-1H-pyrazolo[3,4-d]pyrimidine-3-carboxamide] was run?
**A.** Its Ki is 654 nM.

**Q.** With `Cc1nc2c(c(C(=O)N(C)C)nn2C(C)c2ccc(C(F)(F)F)cc2)c(=O)[nH]1` (single isomer, unassigned) [Example 267, (S)- or (R)-N,N,6-Trimethyl-4-oxo-1-(1-(4-(trifluoromethyl)phenyl)ethyl)-4,5-dihydro-1H-pyrazolo[3,4-d]pyrimidine-3-carboxamide] as the molecule, how does the Ki read?
**A.** Its Ki is greater than 2960 nM.

**Q.** `Cc1nc2c(c(C(=O)NCC(F)(F)F)nn2C(C)c2ccc(C(F)(F)F)cc2)c(=O)[nH]1` (single isomer, unassigned) [Example 268, (R)- or (S)-6-Methyl-4-oxo-N-(2,2,2-trifluoroethyl)-1-(1-(4-(trifluoromethyl)phenyl)ethyl)-4,5-dihydro-1H-pyrazolo[3,4-d]pyrimidine-3-carboxamide] was tested. Which Ki did it give?
**A.** The Ki was 311 nM.

**Q.** How did the Ki turn out when `Cc1nc2c(c(C(=O)NCC(F)(F)F)nn2C(C)c2ccc(C(F)(F)F)cc2)c(=O)[nH]1` (single isomer, unassigned) [Example 269, (S)- or (R)-6-Methyl-4-oxo-N-(2,2,2-trifluoroethyl)-1-(1-(4-(trifluoromethyl)phenyl)ethyl)-4,5-dihydro-1H-pyrazolo[3,4-d]pyrimidine-3-carboxamide] was run?
**A.** The Ki was roughly 1430 nM.

**Q.** Which Ki does the source give for `Cc1nc2c(c(C(=O)N3CCOCC3)nn2C(C)c2ccc(C(F)(F)F)cc2)c(=O)[nH]1` (single isomer, unassigned) [Example 270, (R)- or (S)-6-Methyl-3-(morpholine-4-carbonyl)-1-(1-(4-(trifluoromethyl)phenyl)ethyl)-1H-pyrazolo[3,4-d]pyrimidin-4(5H)-one] here?
**A.** The Ki was greater than 2960 nM.

**Q.** Which Ki does the source give for `Cc1nc2c(c(C(=O)N3CCOCC3)nn2C(C)c2ccc(C(F)(F)F)cc2)c(=O)[nH]1` (single isomer, unassigned) [Example 271, (S)- or (R)-6-Methyl-3-(morpholine-4-carbonyl)-1-(1-(4-(trifluoromethyl)phenyl)ethyl)-1H-pyrazolo[3,4-d]pyrimidin-4(5H)-one] here?
**A.** Its Ki is greater than 2960 nM.

**Q.** How did the Ki turn out when `CC(=O)NCc1nn(C(C)c2ccc(C(F)(F)F)cc2)c2nc(C)[nH]c(=O)c12` (single isomer, unassigned) [Example 276] was run?
**A.** Its Ki is roughly 1520 nM.

**Q.** Which Ki does the source give for `CC(=O)NCc1nn(C(C)c2ccc(C(F)(F)F)cc2)c2nc(C)[nH]c(=O)c12` (single isomer, unassigned) [Example 277] here?
**A.** Its Ki is roughly 1300 nM.

**Q.** For `Cc1nc2c(c(OCC(F)(F)F)nn2C(C)c2ccc(C(F)(F)F)cc2)c(=O)[nH]1` (single isomer, unassigned) [Example 287], which Ki is on record?
**A.** The Ki was 375 nM.

**Q.** For `Cc1nc2c(c(OCC(F)(F)F)nn2C(C)c2ccc(C(F)(F)F)cc2)c(=O)[nH]1` (single isomer, unassigned) [Example 288], which Ki is on record?
**A.** The Ki was 350 nM.
